{"source": "patent US20200155487A1", "about": "“Treatment of obesity and its complications” (CymaBay Therapeutics, Inc., priority 2018, published 2020)", "key": {"[1]": {"tested_on": "DIO-NASH C57BL/6J mouse", "assay": "Diet-induced obese mouse model of NASH (DIO-NASH), 12 weeks dosing", "type": "in vivo", "details": "SD in parentheses", "excerpt": "The diet-induced obese mouse model of NASH (DIO-NASH) uses the C57BL/6J mouse fed a high fat diet that results in NAFLD/NASH. A protocol is described in Kristiansen et al., “Obese diet-induced mouse models of nonalcoholic steatohepatitis—tracking disease by liver biopsy”, World J. Hepatol., 8(16), 673-684 (2016). Male C57BL/6J mice were fed an atherogenic 40% high fat diet (AMLN diet, D09100301, Research Diet, US—40 kcal % fat (18% trans fat), 40 kcal % carbohydrate (20% fructose), 2% cholesterol) for 43 weeks before the start of the trial, to induce NAFLD/NASH. At week −3, the mice underwent a liver biopsy, which was scored for steatosis and fibrosis; mice with fibrosis stage <1 and steatosis score <2 were deselected prior to randomization. A stratified randomization into treatment groups was performed according to liver Collal quantification. […] At 12 weeks, analyses included body weight, plasma ALT, AST, triglycerides, and total cholesterol; liver triglycerides and total cholesterol; and NAS, fibrosis, Collal, galectin-3, and steatosis and fibrosis scores from a liver biopsy. Results are given in the table below: standard deviations are in parentheses: […]"}, "[2]": {"tested_on": "Alms1 mutant (foz/foz) mice", "details": "mouse, in vivo; cited from earlier work"}, "[3]": {"tested_on": "obese subjects", "assay": "Example 2 clinical study, single agent seladelpar in obese subjects, 52 weeks", "type": "in vivo, human", "details": "10, 20, and 50 mg/day for 52 weeks", "excerpt": "Subjects are permitted their usual other medications (e.g. antidiabetic medications such as metformin or […]) but not glitazones, PPAR agonists, OCA, or similar medications. […] The primary efficacy outcome is the change in body weight. Other outcome measures related to the complications of obesity include change in baseline in liver fat content at 12 weeks, as measured by magnetic resonance imaging-derived proton density fat fraction (MRI-PDFF), histological improvement in NASH and fibrosis, assessed by comparing liver biopsy samples at baseline and at 52 weeks after the start of dosing; MRI-PDFF at 26 and 52 weeks; and measurements of total cholesterol, HDL-C, LDL-C, VLDL-C, TGs, apoB, and liver transaminases. The subjects also maintain health diaries, which are reviewed at each visit."}, "[4]": {"tested_on": "dyslipidemic overweight patients", "details": "cited from earlier work; for reduction of alkaline phosphatase: control group 4%"}, "[5]": {"tested_on": "patients with type 2 diabetes", "details": "in SNAC carrier, 20 and 40 mg/day; cited from earlier work"}, "[6]": {"tested_on": "NAFLD/NASH", "details": "in vivo; cited from earlier work"}, "[7]": {"tested_on": "women and men", "details": "human, in vivo; cited from earlier work"}, "[8]": {"details": "compared to placebo, alone and with atorvastatin, 8 weeks"}}, "data": [{"molecule": "CCO[C@H](COc1ccc(C(F)(F)F)cc1)CSc1ccc(OCC(=O)O)c(C)c1", "note": "[Seladelpar, (R)-2-(4-((2-ethoxy-3-(4-(trifluoromethyl)phenoxy)propyl)-sulfanyl)-2-methylphenoxy)acetic acid]", "values": [{"measurement": "NAS post-treatment", "setting": "[1]; after 12 weeks dosing", "value": "3.9 (0.5)"}, {"measurement": "Liver TC", "setting": "[1]; at 12 weeks", "value": "10 (3) mg/g liver"}, {"measurement": "Liver TG", "setting": "[1]; at 12 weeks", "value": "75 (20) mg/g liver"}, {"measurement": "Plasma TC", "setting": "[1]; at 12 weeks", "value": "257 (40) mg/dL"}, {"measurement": "Plasma TG", "setting": "[1]; at 12 weeks", "value": "38 (20) mg/dL"}, {"measurement": "NAS pre-treatment", "setting": "[1]; baseline biopsy before dosing", "value": "6.0 (0.8)"}, {"measurement": "Sirius red stain", "setting": "[1]; liver biopsy at 12 weeks", "value": "2.4 (1.8) %"}, {"measurement": "ALT", "setting": "[1]; plasma, at 12 weeks", "value": "107 (65) U/L"}, {"measurement": "AST", "setting": "[1]; plasma, at 12 weeks", "value": "162 (59) U/L"}, {"measurement": "NASH pathology (hepatic steatosis, inflammation, fibrosis)", "setting": "[2]", "value": "improves NASH pathology"}, {"measurement": "improvement in obesity and complications (body weight, MRI-PDFF, liver biopsy, NAS score)", "setting": "[3]", "value": "dose-related improvement"}, {"measurement": "reduction of γ-glutamyl transpeptidase", "setting": "[4]; 8 weeks, control group 3%", "value": "24-28%"}, {"measurement": "reduction of alkaline phosphatase", "setting": "[4]; 8 weeks", "value": "32-43%"}, {"measurement": "reduction of apoB100", "setting": "[4]; compared to placebo, 50 or 100 mg alone or with atorvastatin 20 mg, 8 weeks, P<0.05", "value": "20-38%"}, {"measurement": "raise of HDL-C", "setting": "[4]; [8]", "value": "1-12%"}, {"measurement": "reduction of LDL", "setting": "[4]; [8]", "value": "18-43%"}, {"measurement": "reduction of free fatty acids", "setting": "[4]; [8]", "value": "16-28%"}, {"measurement": "reduction of high-sensitivity C-reactive protein", "setting": "[4]; [8]", "value": "43-72%"}, {"measurement": "reduction of non-HDL-C", "setting": "[4]; [8]", "value": "18-41%"}, {"measurement": "reduction of triglycerides", "setting": "[4]; [8]", "value": "26-30%"}, {"measurement": "depletion of small dense LDL particles", "setting": "[4]; in vivo", "value": 92, "unit": "%"}, {"measurement": "reduction of the percentage of subjects meeting the criteria for metabolic syndrome", "setting": "[4]; in vivo", "value": "> 2", "unit": "fold"}, {"measurement": "safety and tolerability", "setting": "[4]; in vivo", "value": "safe and generally well-tolerated"}]}, {"molecule": "semaglutide", "values": [{"measurement": "efficacy of once/day oral dosing", "setting": "[5]", "value": "efficacious"}]}, {"molecule": "CCCCCCCCCCC[C@@H](C[C@@H]1OC(=O)[C@H]1CCCCCC)OC(=O)[C@H](CC(C)C)NC=O", "note": "[orlistat]", "values": [{"measurement": "benefit in NAFLD/NASH compared to weight loss alone", "setting": "[6]", "value": "no significant benefit"}]}, {"molecule": "CCc1ccc(CCOc2ccc(CC3SC(=O)NC3=O)cc2)nc1", "note": "(stereo not shown) [pioglitazone]", "values": [{"measurement": "associated risks", "setting": "[7]", "value": "significantly increased risk of weight gain, edema, congestive heart failure, and osteoporotic fractures"}]}, {"molecule": "CC(C)c1c(C(=O)Nc2ccccc2)c(-c2ccccc2)c(-c2ccc(F)cc2)n1CC[C@@H](O)C[C@@H](O)CC(=O)O", "note": "[ATV, reference compound]", "values": [{"measurement": "increase of γ-glutamyl transpeptidase", "setting": "[4]; 8 weeks, atorvastatin 20 mg", "value": 2, "unit": "%"}, {"measurement": "reduction of alkaline phosphatase", "setting": "[4]; 8 weeks", "value": 6, "unit": "%"}]}]}
